According to PubChem BioAssay AID1918996 (Molecular Pharmacology Branch, DTP, NCI, 2023):

Test system: 349418-098-R-PDC complex spheroid growth
Assay: Anticancer human tumor 349418-098-R-PDC patient-derived lung adenocarcinoma cell line growth inhibition [AhR]
Settings: for IC50: curve of first compound; for viability, T/C: stronger effect = lower value
Description: Multicellular complex tumor spheroid response to aryl hydrocarbon receptor antagonists in combination with a variety of drugs and investigational agents in selected tumor cell lines
The current study was undertaken to assess response to aryl hydrocarbon receptor antagonists in combination with standard-of-care drugs and investigational agents in solid tumor complex spheroid models. Complex spheroids include a stromal component modeled by human endothelial cells (HUVEC) and fibroblasts modeled by human mesenchymal stem cells (MSCs). The concentration ranges selected for each drug and investigational agent were based upon clinically achievable concentrations if the clinical Cmax of the agent was known.
Compounds. The drugs and investigational agents: BAY 2416964 (NSC825713), GNF351 (NSC835774), CH-223191 (NSC835775), CPI-455 (NSC825282), aza-TdCyd (NSC777586), decitabine (NSC127716), belinostat (NSC758774), entinostat (NSC756642), pevonedistat (NSC761192), tazemetostat (NSC777109), talazoparib (NSC765396), olaparib (NSC753686), selinexor (NSC780203), nedisertib (M3814, NSC802822), bortezomib (NSC756655), venetoclax (NSC766270), doxorubicin (NSC123127), elimusertib (BAY189344, NSC800525), ceralasertib (AZD6738, NSC777638), TAK-243 (NSC785004), alisertib (NSC759677), etoposide (NSC141540), topotecan (NSC609699), eribulin (NSC707389), gemcitabine (NSC613327), carboplatin (NSC241240), cisplatin (NSC119875), and SN-38 (NSC673596) were obtained from the National Cancer Institute (NCI) Developmental Therapeutics Program Chemical Repository (32). The FDA-approved anticancer drug set is available from the Developmental Therapeutics Program at https://dtp.cancer.gov/organization/dscb/obtaining/available plates.htm. […] The stock solutions were prepared in dimethyl sulfoxide (DMSO, Sigma-Aldrich, St. Louis, MO, cat. D2650), except for the platinum compounds which were prepared in saline (Quality Biological, Gaithersburg, MD, cat. 114-055-101), at 800-fold the tested concentration and stored at -70 degrees C prior to their use. All drugs and investigational agents were tested over a range starting from a high concentration at or near the clinical Cmax and decreasing in half-log increments. If the clinical Cmax for an agent had not been determined, the highest concentration tested was 10 microM (Table 1).
Cell Culture. All cells were maintained in an incubator at 37 degrees C and 5% CO2 with 95% humidity. The PDC lines were cultured according to standard operating procedures established by the NCI PDMR (https://pdmr.cancer.gov). Briefly, all PDCs were thawed and cultured in Matrigel-coated flasks prepared with a working solution of 1X Ham's F-12 nutrient mix, without supplementation (Invitrogen, Waltham, MA, cat. 11765054), 100 U/mL penicillin-streptomycin (Invitrogen, cat. 15140122), and 2.5% Matrigel (Corning Inc., Corning, NY, cat. 354248) for the first three passages. All PDCs were cultured in complete DMEM/F-12 media containing advanced DMEM/F-12 (Invitrogen, cat. 12634028), 4.9% defined fetal bovine serum, heat inactivated (HyClone Laboratories Inc., Logan, UT, cat. SH30070.03HI), 389 ng/mL hydrocortisone (Sigma-Aldrich, cat. H4001), 9.7 ng/mL human EGF recombinant protein (Invitrogen, cat. PHG0313), 23.4 microg/mL adenine (Sigma-Aldrich, cat. A2786), 97.3 U/mL penicillin-streptomycin (Invitrogen, cat. 15140122), 1.9 mM L-glutamine (Invitrogen, cat. 25030081), and 9.7 microM Y-27632 dihydrochloride (Tocris Bioscience, Bristol, United Kingdom, cat. 1254). The PDCs were cultured in complete DMEM/F12 media without 10 microM Y-27632 dihydrochloride for at least two passages prior to the screen. The established cell lines NCI-H1341 and […] were cultured in DMEM/F-12, HEPES (Invitrogen, cat. 11330032), 5% defined fetal bovine serum (HyClone Laboratories Inc., cat. SH30070.03), ITS premix universal culture supplement [insulin (5 microg/mL), transferrin (5 microg/mL), and selenious acid (5 ng/mL)] […]

[1] = second compound 0.1 µM, first compound 0.0316 µM
[2] = second compound 0.1 µM, first compound 0.1 µM
[3] = second compound 0.1 µM, first compound 0.316 µM
[4] = second compound 0.1 µM, first compound 1 µM
[5] = second compound 0.1 µM, first compound 3.16 µM
[6] = second compound 0.1 µM, first compound 10 µM
[7] = second compound 0.316 µM, first compound 0.0316 µM
[8] = second compound 0.316 µM, first compound 0.1 µM
[9] = second compound 0.316 µM, first compound 0.316 µM
[10] = second compound 0.316 µM, first compound 1 µM
[11] = second compound 0.316 µM, first compound 3.16 µM
[12] = second compound 0.316 µM, first compound 10 µM
[13] = second compound 1 µM, first compound 0.0316 µM
[14] = second compound 1 µM, first compound 0.1 µM
[15] = second compound 1 µM, first compound 0.316 µM
[16] = second compound 1 µM, first compound 1 µM
[17] = second compound 1 µM, first compound 3.16 µM
[18] = second compound 1 µM, first compound 10 µM
[19] = second compound 3.16 µM, first compound 0.0316 µM
[20] = second compound 3.16 µM, first compound 0.1 µM
[21] = second compound 3.16 µM, first compound 0.316 µM
[22] = second compound 3.16 µM, first compound 1 µM
[23] = second compound 3.16 µM, first compound 3.16 µM
[24] = second compound 3.16 µM, first compound 10 µM
[25] = second compound 10 µM, first compound 0.0316 µM
[26] = second compound 10 µM, first compound 0.1 µM
[27] = second compound 10 µM, first compound 0.316 µM
[28] = second compound 10 µM, first compound 1 µM
[29] = second compound 10 µM, first compound 3.16 µM
[30] = second compound 10 µM, first compound 10 µM
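Further: spheroids exposed to agents for seven days before luminescence viability read.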
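Wherever viability, T/C is given: spheroids also contain HUVEC endothelial cells and human MSC stroma.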

| Structure (SMILES) | IC50 (second compound 0.1 µM) | IC50 (second compound 0.316 µM) | IC50 (second compound 1 µM) | IC50 (second compound 3.16 µM) | IC50 (second compound 10 µM) | viability, T/C [1] | viability, T/C [2] | viability, T/C [3] | viability, T/C [4] | viability, T/C [5] | viability, T/C [6] | viability, T/C [7] | viability, T/C [8] | viability, T/C [9] | viability, T/C [13] | viability, T/C [14] | viability, T/C [19] | viability, T/C [20] | viability, T/C [25] | viability, T/C [26] | also measured |
| --- | --- | --- | --- | --- | --- | --- | --- | --- | --- | --- | --- | --- | --- | --- | --- | --- | --- | --- | --- | --- | --- |
| CC1(C)CCC(CN2CCN(c3ccc(C(=O)NS(=O)(=O)c4ccc(NCC5CCOCC5)c([N+](=O)[O-])c4)c(Oc4cnc5[nH]ccc5c4)c3)CC2)=C(c2ccc(Cl)cc2)C1 + CC(CO)NC(=O)c1cc(-c2ccc(Cl)cc2)nn(-c2cnn(C)c2)c1=O | 6640 nM | 4530 nM | 5470 nM | 3020 nM | < 31.6 nM | 77.7% | 89.9% | 96.2% | 76.9% | 82.5% | 32.2% | 85.2% | 81.1% | 70.2% | 89.3% | 97.4% | 80% | 86.8% | 45% | 54.1% | viability, T/C [10]: 66.9%; viability, T/C [11]: 65.9%; viability, T/C [12]: 27.8%; viability, T/C [15]: 80%; viability, T/C [16]: 65%; viability, T/C [17]: 79.2%; viability, T/C [18]: 28.2%; viability, T/C [21]: 77%; viability, T/C [22]: 71.4%; viability, T/C [23]: 49%; viability, T/C [24]: 24%; viability, T/C [27]: 48.9%; viability, T/C [28]: 48.5%; viability, T/C [29]: 48.2%; viability, T/C [30]: 26.6% |
| COc1cc(Nc2ncc3c(n2)-c2ccc(Cl)cc2C(c2c(F)cccc2OC)=NC3)ccc1C(=O)O + CC(CO)NC(=O)c1cc(-c2ccc(Cl)cc2)nn(-c2cnn(C)c2)c1=O | 92.5 nM | 47.4 nM | 107 nM | 47.3 nM | < 31.6 nM | 66.3% | 49.3% | 33.4% | 37.4% | 31.7% | 23.1% | 58.7% | 33.7% | 29.5% | 71.9% | 51.3% | 55.2% | 41.3% | 38.4% | 23.4% | viability, T/C [10]: 29.2%; viability, T/C [11]: 28.1%; viability, T/C [12]: 26%; viability, T/C [15]: 27.8%; viability, T/C [16]: 31.3%; viability, T/C [17]: 29.5%; viability, T/C [18]: 32%; viability, T/C [21]: 32.8%; viability, T/C [22]: 28%; viability, T/C [23]: 28.8%; viability, T/C [24]: 29.7%; viability, T/C [27]: 32%; viability, T/C [28]: 24.8%; viability, T/C [29]: 20.9%; viability, T/C [30]: 24.2% |
| Cn1ncnc1C1c2n[nH]c(=O)c3cc(F)cc(c23)NC1c1ccc(F)cc1 (stereo not given) + CC(CO)NC(=O)c1cc(-c2ccc(Cl)cc2)nn(-c2cnn(C)c2)c1=O | > 100 nM | > 100 nM | > 100 nM | 14.3 nM | 4.21 nM | 84.9% | 87.3% | – | – | – | – | 48% | 60.1% | – | 51.2% | 56.8% | 37.6% | 45.3% | 32.4% | 39.2% | viability, T/C (second compound 0.1 µM, first compound 0.000316 µM): 81.4%; viability, T/C (second compound 0.1 µM, first compound 0.001 µM): 85.1%; viability, T/C (second compound 0.1 µM, first compound 0.00316 µM): 94%; viability, T/C (second compound 0.1 µM, first compound 0.01 µM): 96.2%; viability, T/C (second compound 0.316 µM, first compound 0.000316 µM): 71.8%; viability, T/C (second compound 0.316 µM, first compound 0.001 µM): 84.4%; viability, T/C (second compound 0.316 µM, first compound 0.00316 µM): 60.6%; viability, T/C (second compound 0.316 µM, first compound 0.01 µM): 76.3%; viability, T/C (second compound 1 µM, first compound 0.000316 µM): 78.1%; viability, T/C (second compound 1 µM, first compound 0.001 µM): 106%; viability, T/C (second compound 1 µM, first compound 0.00316 µM): 83.9%; viability, T/C (second compound 1 µM, first compound 0.01 µM): 52.2%; viability, T/C (second compound 3.16 µM, first compound 0.000316 µM): 83.1%; viability, T/C (second compound 3.16 µM, first compound 0.001 µM): 68.9%; viability, T/C (second compound 3.16 µM, first compound 0.00316 µM): 55.7%; viability, T/C (second compound 3.16 µM, first compound 0.01 µM): 61%; viability, T/C (second compound 10 µM, first compound 0.000316 µM): 39.9%; viability, T/C (second compound 10 µM, first compound 0.001 µM): 64.7%; viability, T/C (second compound 10 µM, first compound 0.00316 µM): 59.8%; viability, T/C (second compound 10 µM, first compound 0.01 µM): 35.2% |
| NS(=O)(=O)OCC1CC(n2ccc3c(NC4CCc5ccccc54)ncnc32)CC1O (stereo not given) + CC(CO)NC(=O)c1cc(-c2ccc(Cl)cc2)nn(-c2cnn(C)c2)c1=O | 188 nM | 149 nM | 107 nM | 49.4 nM | < 31.6 nM | 83.2% | 65.6% | 37.1% | 18.4% | 13.4% | 8.51% | 92.7% | 62.9% | 24.7% | 68.8% | 52.2% | 54.8% | 42.6% | 33.8% | 30.9% | viability, T/C [10]: 19.9%; viability, T/C [11]: 11.2%; viability, T/C [12]: 8.21%; viability, T/C [15]: 24.5%; viability, T/C [16]: 16.3%; viability, T/C [17]: 10.8%; viability, T/C [18]: 9.16%; viability, T/C [21]: 22.7%; viability, T/C [22]: 14.7%; viability, T/C [23]: 10.7%; viability, T/C [24]: 8.74%; viability, T/C [27]: 25.7%; viability, T/C [28]: 16.7%; viability, T/C [29]: 10.9%; viability, T/C [30]: 8.91% |
